In paper PMC9508196 (Scientific Reports, 2022):
No end group written: not given here.

Columns and labels:
[1] = tested on: A. baumannii A-8.2–1 (XDR); experiment: microbe, parasite or virus in culture; type: cell-based, Acinetobacter baumannii; details: clinical isolate A-8.2–1 (XDR), blood
Description: (§1) Ten strains of both Gram-positive and -negative bacteria, including Staphylococcus aureus ATCC 25,923, S. epidermidis ATCC 12,228, Bacillus cereus ATCC 11,778, Listeria monocytogenes 10403S, Salmonella typhimurium ATCC 13,311, Pseudomonas aeruginosa ATCC 27,853, Shigella sonnei ATCC 11,060, A. baumannii ATCC 19,606, Escherichia coli ATCC 25,922 and E. coli O157:H7, were used in this study. Eight clinical isolates of multidrug-resistant (MDR) and extensively drug-resistant (XDR) A. baumannii, isolated from human (blood, sputum, respiratory sample, sterile site sample and urine), were kindly provided by Asst. Prof. Dr. Sakawrat Kanthawong (Faculty of Medicine, Khon Kaen University, Thailand) (Table S1). All bacterial strains, excluding L. monocytogenes 10403S and E. coli, were cultured in tryptic soy broth (TSB). L. monocytogenes was grown in TSB supplemented with 0.6% yeast extract (TSB-YE), and E. coli was cultured in Luria broth (LB). All of bacteria were cultured at 37 °C with continuous shaking at 220 rpm.
(§2) Minimum inhibitory concentration (MIC) of peptides and antibiotics was assessed by a modified version of the broth microdilution method from the Clinical and Laboratory Standards Institute (CLSI) as previously described. In brief, mid-log phase growths of microbial strains were cultured in Müeller-Hinton broth (MHB) with an initial inoculum of 2–8 × 10^5 CFU/mL. Bacteria suspensions were incubated in sterile 96-well plates with test agents at desired concentrations. […] Minimum bactericidal concentration (MBC) determination was performed using a modified version of the colony count assay. In brief, fifty µl of all non-turbid wells from MIC experiments were spread on agar plates. The MBC value was defined as the lowest concentration of peptides with no colony growth on the plate. All assays were performed in triplicate.

[2] = tested on: A. baumannii ATCC 19,606; experiment: microbe, parasite or virus in culture; type: cell-based, Acinetobacter baumannii; details: A. baumannii ATCC 19,606, triplicate
Description: as §1, §2

[3] = tested on: A. baumannii B-8.1–1 (MDR); experiment: microbe, parasite or virus in culture; type: cell-based, Acinetobacter baumannii; details: clinical isolate B-8.1–1 (MDR), respiratory tract
Description: as §1, §2

[4] = tested on: A. baumannii B-8.1–2 (MDR); experiment: microbe, parasite or virus in culture; type: cell-based, Acinetobacter baumannii; details: clinical isolate B-8.1–2 (MDR), respiratory tract
Description: as §1, §2

[5] = tested on: A. baumannii B-8.2–2 (XDR); experiment: microbe, parasite or virus in culture; type: cell-based, Acinetobacter baumannii; details: clinical isolate B-8.2–2 (XDR), respiratory tract
Description: as §1, §2

[6] = tested on: A. baumannii C-8.1–2 (MDR); experiment: microbe, parasite or virus in culture; type: cell-based, Acinetobacter baumannii; details: clinical isolate C-8.1–2 (MDR), sterile site
Description: as §1, §2

[7] = tested on: A. baumannii C-8.2–1 (XDR); experiment: microbe, parasite or virus in culture; type: cell-based, Acinetobacter baumannii; details: clinical isolate C-8.2–1 (XDR), sterile site
Description: as §1, §2

[8] = tested on: human red blood cells (hRBCs); experiment: Hemolysis assay; type: cell-based; details: hRBCs, peptide 250 µg/mL, 1 h, 37 °C
Experimental: The hemolytic activity of peptides was determined as the amount of hemoglobin released from lysed human red blood cells (hRBCs) after treatment with peptide. Fresh hRBCs were collected from a healthy volunteer in polycarbonate tubes containing heparin. Then, the collected packed RBCs were washed at least three times (or until the supernatant was clear) with sterile phosphate-buffered saline pH 7.4 (PBS) and centrifuged at 2,000 × g for 5 min. The 2% (v/v) of washed hRBCs in PBS were incubated with serially diluted peptides (0.98 to 250 μg/ml) for 1 h at 37 °C. After centrifugation, the supernatants were monitored for optical density (OD) at 405 nm using a Multiskan FC Microplate Reader[21]. Values for 0% (negative control) and 100% (positive control) lysis were determined by incubating the hRBCs with PBS only (ODBlank) and 0.1% (v/v) Triton X-100 (ODTriton X-100), respectively. The experiments were performed in triplicate. The percent hemolysis was calculated according to the following equation: %Hemolysis=ODSample-ODBlank/ODTriton X-100-ODBlank×100

[9] = tested on: A. baumannii ATCC 19,606; experiment: Peptide stability in human plasma (MIC/MBC after pre-incubation); type: cell-based, Acinetobacter baumannii; details: peptide mixed with pure human plasma, 1 h, 37 °C, then two-fold diluted in MHB, bacteria 24 h
Experimental: as §2
(§3) The MIC and MBC assays were performed after peptide was exposed to various conditions, including proteolytic enzymes, serum salts and human plasma. […] To determine peptide sensitivity to physiological salts, approximately 5 × 10^5 CFU/ml of A. baumannii ATCC 19,606 was mixed with the MHB containing different physiological salts at final concentration as follows: 150 mM NaCl, 4.5 mM KCl, 1 mM MgCl2, 6 µM NH4Cl, 8 µM ZnCl2, 4 µM FeCl3 and […]. After treatment, the MIC was evaluated as described in 2.4. To test the stability of peptides in human plasma, peptide was mixed with pure human plasma, and the mixture was incubated for 1 h at 37 °C. Then, the mixture was two-fold serially diluted with sterile MHB. The peptides at final concentrations of 0.98 to 250 µg/ml were incubated with an equal volume of bacterial suspension at 37 °C for 24 h. MIC values were determined as described in 2.4.

[10] = tested on: A. baumannii ATCC 19,606; experiment: Peptide stability to proteolytic enzymes (MIC/MBC after pre-incubation); type: cell-based, Acinetobacter baumannii
Experimental: as §2, §3

[11] = tested on: A. baumannii ATCC 19,606; experiment: Peptide sensitivity to physiological salts (MIC/MBC); type: cell-based, Acinetobacter baumannii
Experimental: as §2, §3

[12] = control: absence of human plasma and proteolytic enzymes, A. baumannii ATCC 19,606
[13] = peptide pre-incubated with 1 mg/ml pepsin, 37 °C, 1 h
[14] = control: absence of serum salts, MHB

Substance: RLFRRVKKVAGKIAKRIWK-NH2 [AP19]
- MBC [1]: 3.91(3.91) µg/ml
- MIC [1]: 3.91(3.91) µg/ml
- MIC ([2]; broth microdilution (modified CLSI), MHB, 2–8 × 10^5 CFU/mL, 24 h, 37 °C): 7.81 µg/mL
- MBC ([2]; colony count from non-turbid MIC wells): 7.81 (7.81) µg/ml
- MBC [3]: 7.81(7.81) µg/ml
- MIC [3]: 7.81(7.81) µg/ml
- MBC [4]: 7.81(7.81) µg/ml
- MIC [4]: 7.81(7.81) µg/ml
- MBC [5]: 7.81(7.81) µg/ml
- MIC [5]: 7.81(7.81) µg/ml
- MBC [6]: 3.91(3.91) µg/ml
- MIC [6]: 3.91(3.91) µg/ml
- MBC [7]: 7.81(7.81) µg/ml
- MIC [7]: 7.81(7.81) µg/ml
- Hemolysis [8]: 7.25%
- MBC in the presence of human plasma [9]: 250(250) µg/ml
- MIC in the presence of human plasma [9]: 250(250) µg/ml
- MBC, control [10, 12]: 7.81(7.81) µg/ml
- MIC, control [10, 12]: 7.81(7.81) µg/ml
- MBC in the presence of pepsin [10, 13]: 31.25(31.25) µg/ml
- MIC in the presence of pepsin [10, 13]: 31.25(31.25) µg/ml
- MBC in the presence of FeCl3 ([11]; MHB with 4 µM FeCl3): 7.81(7.81) µg/ml
- MIC in the presence of FeCl3 ([11]; MHB with 4 µM FeCl3): 7.81(7.81) µg/ml
- MBC in the presence of NH4Cl ([11]; MHB with 6 µM NH4Cl): 7.81(7.81) µg/ml
- MIC in the presence of NH4Cl ([11]; MHB with 6 µM NH4Cl): 7.81(7.81) µg/ml
- MBC in the presence of ZnCl2 ([11]; MHB with 8 µM ZnCl2): 7.81(7.81) µg/ml
- MIC in the presence of ZnCl2 ([11]; MHB with 8 µM ZnCl2): 7.81(7.81) µg/ml
- MBC in the presence of MgCl2 ([11]; MHB with 1 mM MgCl2): 7.81(7.81) µg/ml
- MIC in the presence of MgCl2 ([11]; MHB with 1 mM MgCl2): 7.81(7.81) µg/ml
- MBC in the presence of KCl ([11]; MHB with 4.5 mM KCl): 7.81(7.81) µg/ml
- MIC in the presence of KCl ([11]; MHB with 4.5 mM KCl): 7.81(7.81) µg/ml
- MBC in the presence of NaCl ([11]; MHB with 150 mM NaCl): 31.25(31.25) µg/ml
- MIC in the presence of NaCl ([11]; MHB with 150 mM NaCl): 31.25(31.25) µg/ml
- MBC in the presence of CaCl2 ([11]; MHB with […] CaCl2): 7.81(7.81) µg/ml
- MIC in the presence of CaCl2 ([11]; MHB with […] CaCl2): 7.81(7.81) µg/ml
- MBC, control [11, 14]: 7.81(7.81) µg/ml
- MIC, control [11, 14]: 7.81(7.81) µg/ml
